Consider 11 compounds from ChEMBL document CHEMBL5236656, “The effect of diphenylethane side-chain substituents on dibenzocyclohexadiene formation and their inhibition of α-synuclein aggregation in vitro” (Bioorg Med Chem, 2023).

Test [1] has as its target Alpha-synuclein (Homo sapiens) (UniProt P37840). In words: Inhibition of alpha-Synuclein (unknown origin) aggregation assessed as aggregation by measuring ThT fluorescence at 500 uM incubated for 5 days by ThT fluorescence assay (reference value: 100%). More on the design: scale not given: the % may be the effect or the level left. The settings on record: time 5.0 day.

The target is the same in test [2]. In words: Inhibition of alpha-Synuclein (unknown origin) aggregation assessed as aggregation by measuring ThT fluorescence at 100 uM incubated for 5 days by ThT fluorescence assay (reference value: 100%). Set-up: scale not given: the % may be the effect or the level left. The settings on record: time 5.0 day.

As to `Oc1cc2ccc3cc(O)c(O)cc3c2cc1O`, the Activity amounted to 25.9% in test [1] and 33.6% in test [2].
For the compound `CC1(C)c2cc(O)c(O)cc2-c2cc(O)c(O)cc2C1(C)C`, the values for the Activity in test [1] and in test [2] were 39.8% and 56.1%, respectively.
Take `C[C@@H]1Cc2cc(O)c(O)cc2-c2cc(O)c(O)cc2C[C@@H]1C`: the figures for the Activity in test [1] and in test [2] were 13.6% and 28.6%, respectively.
The corresponding values for `CC(C)(c1ccc(O)c(O)c1)C(C)(C)c1ccc(O)c(O)c1` are 9.2% and 44.4%.
`Oc1cc2c(cc1O)-c1c(ccc(O)c1O)CC2`: the figures for the Activity in test [1] and in test [2] were 10.7% and 27.8%, respectively.
As to `CC1(C)c2cc(O)c(O)cc2-c2c(ccc(O)c2O)C1(C)C`, the figures for the Activity in test [1] and in test [2] were 15.5% and 36.1%, respectively.
For the compound `Oc1cc2c(cc1O)-c1cc(O)c(O)cc1CC2`, the Activity worked out at 16.8% in test [1] and 22.2% in test [2].
In the same order, the values of `CC1c2cc(O)c(O)cc2-c2c(ccc(O)c2O)C1C` (configuration not stated) are 45.6% and 66.1%.
The corresponding values for `CC(c1ccc(O)c(O)c1)C(C)c1ccc(O)c(O)c1` (mixture of isomers) are 6.1% and 31.8%.
In the same order, the values of `Oc1ccc(CCc2ccc(O)c(O)c2)cc1O` are 8.1% and 35.6%.
Regarding `Cc1c(C)c2cc(O)c(O)cc2c2cc(O)c(O)cc12`, the Activity was determined as 19.3% in test [1] and 47.3% in test [2].
